The test system of this test is main fungi responsible for beverage and food spoilage (yeast and mould strains). Nature of the test: Growth inhibition of yeast and mould strains in 105 g/L sucrose solution (OD after 21 days). In kind it is cell-based. As to the method:
The antifungal activity of various flavouring ingredients was evaluated against the following yeast strains: Zygosaccharomyces rouxii (DSM70835), Pichia membranaefaciens (DSM 70369), Dekkera Bruxellensis (DSM70726), Saccharomyces cerevisiae (DSM 70869) and Candida krusei (origin: Leatherhead Food Research) and against the following moulds strains: Byssochlamys nivea, Fusarium solani, Aspergillus fumigatis, Byssochlamys fulva, Aspergillus niger, Talaromyces Harzanium, Penicillium crustosum, Penicillium digitatum, Neosartorya fischeri, Penicillium roquerforti, Fusarium oxysporum.
A 105 g/L solution of sucrose in water at pH 3±0.2 was prepared. Another sucrose solution at the same concentration at pH 5±0.2 was also prepared. The sucrose solutions were autoclaved at 121° C. for 15 minutes and the pH was re-checked to ensure it remained within the range.
Test samples were then prepared in microtiter plates. An amount of 100 μL of sucrose solution prepared above, were mixed with an inoculum of 20 μL of one fungal strain, so as to achieve a microbial level comprised between 10^2 and 10^3 cfu/mL.
The flavouring ingredient or composition was then added to the microtiter plate. Dilutions were prepared in the microtiter plate for each mixture of sucrose solution and inoculum to afford final concentrations of 2000 ppm, 1000 ppm, 500 ppm, 250 ppm and 125 ppm of the ingredient or composition to be tested. One well for each mixture of sucrose solution and inoculum was kept free of flavouring ingredient or composition, to serve as a control.
The microtiter plates were then stored in a standard 25° C. incubator under aerobic conditions.
The optical density (OD) of each sample was measured after 21 days of incubation using a Bio-Tek Synergy™ HT Multi-Mode Microplate Reader (from Labtech International, UK). The wavelength was set to 380 nm for yeast strains and to 500 nm for mould strains. All tests were done in triplicate to ensure statistical relevance of the results.
The following tables indicate the OD measurements obtained when each flavouring ingredient or composition was used to inhibit growth of yeast and mould strains involved at concentration ranging between 0 and 2000 ppm. Measurements corresponding to efficient growth inhibition are indicated by grey cells in the tables below. Results were considered as evidence of efficient growth inhibition when the OD of the growth medium was below 0.2. OD measurements below 0.2 were not considered as sufficient evidence of the antifungal activity of a given flavouring ingredient or composition at a given concentration if OD measurements obtained with a higher concentration of such flavouring ingredient or composition were above 0.2.

Setting [1] is: sucrose solution at pH 3, concentrations of 1000 ppm or less, OD below 0.2 after 21 days at 25° C., 16 strains tested.
Where [2] appears, read: sucrose solution at pH 5, concentrations of 1000 ppm or less, OD below 0.2 after 21 days at 25° C., 16 strains tested.

This note sets out measurements from patent US20130310452A1, “ANTIFUNGAL FLAVOURING INGREDIENTS AND COMPOSITIONS” (FIRMENICH SA, priority 2011, published 2013).

Molecules are shown by their SMILES.

For the compound `CCCCC(C)C(=O)O` (stereo not drawn) [2-methylhexanoic acid], the “number of the main fungi responsible for beverage and food spoilage against which there is a strong antifungal effect” value (“number of the main fungi responsible” below) by setting is: under setting [1], 15; under setting [2], 16.
Taken in the same sequence, the figures for `CCCCCc1ccco1` [2-pentylfuran] were 3 and 2.
In the case of `CC(C)CC=C(C=O)c1ccccc1` [5-methyl-2-phenyl-2-hexenal], the “number of the main fungi responsible” value (pH 3) is on record as 9; the “number of the main fungi responsible” value (pH 5) was determined as 5.
`CC(=O)C=CCCC(C)C` [7-methyl-3-octen-2-one]: the “number of the main fungi responsible” value under setting [1] is 6; the “number of the main fungi responsible” value under setting [2] is 11.
The matching figures for `C[C@@H]1CC[C@H]2[C@H](C)C(=O)O[C@@H]2C1` [(+)-(3S,3AS,6R,7AR)-perhydro-3,6-dimethyl-benzo[B]furan-2-one]: 3 and 2.
Taken in the same sequence, the figures for `Cc1ccc(C(C)C)cc1O` [carvacrol] were 15 and 14.
The matching figures for `CCCc1ccc(O)c(OC)c1` [dihydro eugenol]: 15 and 15.
Regarding `CC(C)=CCCC(C)=CCCC(C)=CCO` [farnesol], the “number of the main fungi responsible” value under setting [1] was 2.
Still for that read-out and setting: to `COc1cc(C)cc(O)c1` [orcinyle, 3-methoxy-5-methylphenol] belongs 2.
With `O=C(O)c1ccccc1O` [salicylic acid], the “number of the main fungi responsible” value is on record as 12 under setting [1] and 14 under setting [2].
With `CC1=CCC(=C(C)C)CC1` [terpinolene], the “number of the main fungi responsible” value is, setting by setting: under setting [1], 15; under setting [2], 7.
For the compound `Cc1ccc(C(C)C)c(O)c1` [thymol], the “number of the main fungi responsible” value under setting [1] is reported as 4.
